The species entered for experiment [1] is Rattus norvegicus. Kind of experiment: Inhibitory activity on acetylcholine-induced vasorelaxation of phenylephrine-precontracted rat aorta with intact endothelium. The experiment is classed as functional, organism-based.
The species entered for experiment [2] is Rattus norvegicus. Kind of experiment: Percent of maximal acetylcholine (ACh)-induced vasorelaxation of the rat aorta. The experiment is classed as functional.

Experimental findings from ChEMBL document CHEMBL1132095, “6-arylamino-5,8-quinolinediones and 7-arylamino-5,8-isoquinolinediones as inhibitors of endothelium-dependent vasorelaxation” (Bioorg Med Chem Lett, 1999) are described below.

As for `O=C1C=C(Nc2ccc(Cl)cc2)C(=O)c2ccccc21`, it took 220 nM to reach a half-maximal effect in the experiment listed under Rattus norvegicus [1] (EC50). The compound also gave an Emax in the experiment filed under Rattus norvegicus [2] of 98%.

In the experiment listed under Rattus norvegicus [1], `O=C1C(Nc2ccc(F)cc2F)=CC(=O)c2ncccc21` returned an EC50 of 288 nM. Also, the Emax in the experiment filed under Rattus norvegicus [2] worked out at 94%.

As to `O=C1C(Nc2ccc(OC(F)(F)F)cc2)=CC(=O)c2ncccc21`, a half-maximal effect in the experiment filed under Rattus norvegicus [1] (EC50) was put at 603 nM. For the same compound, the Emax in the experiment filed under Rattus norvegicus [2] was 88%.

As for `O=C1C(Nc2cc(F)cc(F)c2)=CC(=O)c2ncccc21`, in the experiment listed under Rattus norvegicus [1], the half-maximal effective concentration (EC50) was found to be 449 nM. For the same compound, in the experiment listed under Rattus norvegicus [2], the Emax was found to be 91%.

Take `O=C1C(Nc2ccccc2)=CC(=O)c2ncccc21`: the response in the experiment listed under Rattus norvegicus [1] was half-maximal at 335 nM (EC50). In the experiment filed under Rattus norvegicus [2], this compound displayed an Emax of 77%.

For `O=C1C=C(Nc2ccccc2)C(=O)c2ccccc21`, the EC50 in the experiment listed under Rattus norvegicus [1] worked out at 239 nM. In the experiment filed under Rattus norvegicus [2], the Emax is 98%.

For the compound `O=C1C=C(Nc2ccc(F)cc2)C(=O)c2ccccc21`, the EC50 in the experiment listed under Rattus norvegicus [1] is 362 nM. Further, the Emax in the experiment listed under Rattus norvegicus [2] amounted to 98%.

In the experiment listed under Rattus norvegicus [1], `O=C1C(Nc2ccc(F)cc2)=CC(=O)c2ncccc21` gave an EC50 of 541 nM. For the same compound, the Emax in the experiment filed under Rattus norvegicus [2] was found to be 79%.

Compound `O=C1C(Nc2ccc(I)cc2)=CC(=O)c2ncccc21` registered an EC50 in the experiment filed under Rattus norvegicus [1] of 214 nM. Further, the Emax in the experiment listed under Rattus norvegicus [2] turned out to be 89%.

In the experiment listed under Rattus norvegicus [1], `O=C1C(Nc2ccc(C(F)(F)F)cc2)=CC(=O)c2ncccc21` came in with an EC50 of 607 nM. Also, in the experiment listed under Rattus norvegicus [2], the Emax is 91%.

Take `O=C1C=C(Nc2ccc(F)c(F)c2F)C(=O)c2cnccc21`: the EC50 in the experiment listed under Rattus norvegicus [1] came to 1130 nM. Moreover, in the experiment filed under Rattus norvegicus [2], the Emax was 87%.

In the experiment listed under Rattus norvegicus [1], `O=C1C(Nc2ccc(Br)cc2)=CC(=O)c2ncccc21` returned an EC50 of 302 nM. In the experiment filed under Rattus norvegicus [2], the Emax turned out to be 88%.

`O=C1C=C(Nc2ccc(F)cc2)C(=O)c2cnccc21` returned an EC50 in the experiment filed under Rattus norvegicus [1] of 1230 nM. This compound also had an Emax in the experiment filed under Rattus norvegicus [2] of 72%.

As for `O=C1C=C(Nc2cccc(F)c2)C(=O)c2cnccc21`, in the experiment filed under Rattus norvegicus [1], a half-maximal response (EC50) required 562 nM. The same compound returned an Emax in the experiment listed under Rattus norvegicus [2] of 89%.

In the case of `O=C1C=CC(=O)c2ccccc21` [NAPHTHOQUINONE], the midpoint of the response in the experiment filed under Rattus norvegicus [1], the EC50, lay at 127 nM. In the experiment listed under Rattus norvegicus [2], this compound had an Emax of 98%.

`O=C1C(Nc2ccc(Cl)cc2)=CC(=O)c2ncccc21` registered an EC50 in the experiment filed under Rattus norvegicus [1] of 178 nM. The compound further returned an Emax in the experiment listed under Rattus norvegicus [2] of 86%.

In the experiment filed under Rattus norvegicus [1], `O=C1C=C(Nc2ccc(Cl)cc2)C(=O)c2cnccc21` registered an EC50 of 190 nM. The compound also displayed an Emax in the experiment listed under Rattus norvegicus [2] of 96%.

Regarding `O=C1C(Nc2cccc(F)c2)=CC(=O)c2ncccc21`, the EC50 in the experiment filed under Rattus norvegicus [1] worked out at 805 nM. In the experiment filed under Rattus norvegicus [2], the Emax amounted to 85%.

In the case of `O=C1C=CC(=O)c2ncccc21`, the EC50 in the experiment listed under Rattus norvegicus [1] came to 519 nM. For the same compound, in the experiment filed under Rattus norvegicus [2], the Emax was determined as 80%.

In the experiment listed under Rattus norvegicus [1], `O=C1C=C(Nc2ccccc2)C(=O)c2cnccc21` gave an EC50 of 439 nM. Also, the Emax in the experiment filed under Rattus norvegicus [2] amounted to 93%.

`O=C1C=C(Nc2ccc(F)cc2F)C(=O)c2cnccc21` returned an EC50 in the experiment listed under Rattus norvegicus [1] of 430 nM. Further, the Emax in the experiment listed under Rattus norvegicus [2] worked out at 96%.

The compound `O=C1C=C(Nc2ccc(F)c(F)c2)C(=O)c2cnccc21` registered an EC50 in the experiment listed under Rattus norvegicus [1] of 640 nM. The same compound displayed an Emax in the experiment listed under Rattus norvegicus [2] of 81%.

In the experiment listed under Rattus norvegicus [1], `O=C1C=C(Nc2cc(F)cc(F)c2)C(=O)c2cnccc21` returned an EC50 of 290 nM. In the experiment filed under Rattus norvegicus [2], this compound returned an Emax of 94%.

Take `O=C1C=C(Nc2ccc(F)c(F)c2F)C(=O)c2ccccc21`: the midpoint of the response in the experiment filed under Rattus norvegicus [1], the EC50, lay at 330 nM. The Emax in the experiment filed under Rattus norvegicus [2] turned out to be 97%.

In the experiment filed under Rattus norvegicus [1], `N=C(NCCC[C@H](N)C(=O)O)N[N+](=O)[O-]` [NITROARGININE] yielded an EC50 of 1100 nM. Besides, the Emax in the experiment filed under Rattus norvegicus [2] came to 69%.

`O=C1C(Nc2ccc(F)c(F)c2F)=CC(=O)c2ncccc21` displayed an EC50 in the experiment filed under Rattus norvegicus [1] of 937 nM. The compound further returned an Emax in the experiment listed under Rattus norvegicus [2] of 72%.

Regarding `O=C1C(Nc2ccc(F)c(F)c2)=CC(=O)c2ncccc21`, in the experiment listed under Rattus norvegicus [1], a half-maximal response (EC50) required 251 nM. In addition, the Emax in the experiment listed under Rattus norvegicus [2] was found to be 92%.
